The values below come from article PMC9143821, “Design and Synthesis of a Novel 4-aryl-N-(2-alkoxythieno [2,3-b]pyrazine-3-yl)-4-arylpiperazine-1-carboxamide DGG200064 Showed Therapeutic Effect on Colon Cancer through G2/M Arrest” (Pharmaceuticals, 2022).

One data set has as its system HCT8. The data set is described as follows: SRB assay, colon cancer cell growth inhibition. It counts as cell-based. Particulars: Homo sapiens, HCT-8, 48 h. On the procedure: (§1) A series of 4-phenyl-N-(thieno[2,3-b]pyrazin-3-yl)piperazine-1-carboxamides derivatives 7a–7i were tested for the colon cancer cell growth inhibition effect using the SRB assay (Table 2). […] Compounds 7a and 7b, containing chlorine at the C6 position of thieno[2,3-b]pyrazine ring, have weaker anticancer activity than its proton-containing derivatives 7c–7i. On the other hand, 7c has shown higher inhibition activity than 7d with methyl substituents at the C3 and C5 positions of the phenyl ring. […] Substitutions with one fluorine atom in the phenyl ring could not improve the inhibition effect of the compounds 7g–7h.
(§2) The HCT116, HCT8, KM12, HCT15, HT29, COLO-205, SW620 cell line was obtained from the National Cancer Institute (Material Transfer Agreement number: 2702–09). DLD1 cell line was obtained from the Korean cell line bank. Cells were cultured in complete Roswell Park Memorial Institute (RPMI) 1640 medium (Hyclone, South Logan, UT, USA) containing 10% fetal bovine serum (Hyclone, South Logan, UT, USA) in an atmosphere of 5% CO2 and 100% humidity at 37 °C. A small interfering RNA (siRNA) duplex targeting human c-Jun and FBXW7 (Genolution, Seoul, Korea) were introduced into cells using Lipofector-EXT (AptaBio, Yongin, Korea), according to the manufacturer’s instructions. As negative controls, cells were incubated with Lipofector-EXT (AptaBio, Yongin, KOR) and a negative siRNA (Genolution, Seoul, Korea).
(§3) Cells (100 μL containing 5000–10,000 cells/well) were incubated in 96 well microtiter plates. After 24 h, drugs were added (100 μL) to each well and the cultures were incubated for 48 h at 37 °C. The cells were then fixed in TCA (50 μL per well). The plates were incubated for a minimum of 1 h or a maximum of 3 h at 4 °C. The liquid was removed from the plate, which was then rinsed five times with water and allowed to dry at room temperature (rt) for approximately 12–24 h. The fixed cells were stained with 100 μL Sulforhodamine B (SRB) solution for 5 min at rt. After staining, the plate was washed three times with 1% glacial acetic acid and dried at rt for approximately 12–24 h. The SRB was then solubilized in 10 mM Tris buffer, and the absorbance was read at 515 nm. The effect of the drugs was expressed as GI50 (50% growth inhibition).
On the technique in general: The SRB assay estimates cell density from bound dye.

A further data set deals with HCT15. Kind of data set: SRB assay, colon cancer cell growth inhibition. It counts as cell-based. Particulars: Homo sapiens, HCT-15, 48 h. On the procedure:
as §1, §2, §3

The next data set concerns HT29. Kind of data set: SRB assay, colon cancer cell growth inhibition. Particulars: Homo sapiens, HT-29, 48 h. The format is cell-based. On the procedure: as §1, §2, §3
Another data set deals with KM12. The data set is described as follows: SRB assay, colon cancer cell growth inhibition. The format is cell-based. The conditions noted are these: Homo sapiens, 48 h. On the procedure: as §1, §2, §3
Another data set relates to Colo205. Kind of data set: SRB assay, colon cancer cell growth inhibition. The format is cell-based. Particulars: Homo sapiens, COLO 205, 48 h. On the procedure:
as §1, §2, §3

The subject of another data set is SW620. The data set is described as follows: SRB assay, colon cancer cell growth inhibition. It counts as cell-based. The conditions noted are these: Homo sapiens, SW-620, 48 h. On the procedure:
as §1, §2, §3

The test system of the next data set is HCT116. The data set is described as follows: SRB assay, colon cancer cell growth inhibition. Particulars: Homo sapiens, HCT-116. It counts as cell-based. On the procedure:
as §1, §2, §3

Data set [1] is described as follows: Pharmacokinetics in SD rats. Particulars: male, Sprague-Dawley, rat, plasma. It counts as in vivo. On the procedure:
Sprague–Dawley rats (adult males, 250–300 g) were fasted overnight, and the femoral vein (for iv administration of the compound) and jugular vein (for blood sampling) of each rat were cannulated with polyethylene tubing. The selected compounds dissolved in 30% polyethylene glycol (PEG) in saline were administered either intravenously or orally. At various time points after administration, blood samples (0.5 mL) were collected from the jugular vein, transferred to heparin-coated tubes, centrifuged to separate off the plasma. The plasma was stored at −80 °C until assayed. Compound concentrations in plasma were determined by LC/MS/MS analysis (API4000 mass spectrometer, Applied Biosystem, Waltham, MA, USA). Pharmacokinetic parameters were analyzed using the WinNonlin software program. The area under the curve (AUC) was calculated using the trapezoidal rule extrapolated to infinity. The terminal elimination half-life, systemic clearance, and volume of distribution at steady state were determined. The extent of absolute oral bioavailability (F) was estimated by comparing the AUC values after intravenous and oral administration of the compounds.

The subject of the next data set is FBXW7/c-Jun interaction. Kind of data set: Immunoprecipitation, ubiquitination and FBXW7/c-Jun interaction. It counts as cell-based, human. The conditions noted are these: HCT116 and DLD1; DGG200064 50 nM 18 h; MG132 10 μM 6 h. The text has this:
To investigate whether the ubiquitination of c-Jun is suppressed through the inhibition of c-Jun and FBXW7 binding by DGG200064, c-Jun immunoprecipitation was done to observe protein–protein interaction (Figure 4). E3 ligase, such as FBXW7, binds the protein to the ubiquitin chain through covalent bonds and rapidly degrades the protein through 26S proteasome. When treated with MG132 as a proteasome inhibitor, the ubiquitination of c-Jun increased compared to both control HCT116 and DLD1 cells. In contrast, the c-Jun ubiquitination was inhibited by DGG200064. The binding between c-Jun and FBXW7 was reduced with DGG200064 treatment. The FBXW7 protein, also known as CDC4, is a component of the SCF complex ubiquitin ligase and is known as a modulator of several substrates including cyclin E, c-Myc, c-Jun, and Notch. To check the selectivity of DGG200064 towards FBXW7 substrates, the change of c-Jun, cyclin E, and c-Myc by DGG200064 was analyzed. […] Cyclin E immunoprecipitation was done to test whether the ubiquitination of cyclin E by FBXW7 is inhibited by DGG200064 in HCT116 (Figure S2b, Supplementary Materials). There were no changes in cyclin E ubiquitination with DGG200064 treatment.
To identified ubiquitination of c-Jun by DGG200064, HCT116 cells were treated with/without MG132 (10 μM) for 6h, DGG200064 (50 nM) for 18 h. The cell lysate was prepared using RIPA buffer for immunoprecipitation. Each lysate was mixed with antibodies (1 μg/mL) of c-Jun or MYC at 4 °C overnight in immunoprecipitation buffer containing 50 mM Tris-Cl,150 mM NaCl, 1 mM EDTA, 0.5% Triton X-100, pH 7.4, and reacted with 10 μL of protein A/G beads UltraLink Resin (50:50 resin: buffer slurry condition) (Peirce, #35133) for 2 h on RT for precipitation. After reaction and centrifugation at 3000 rpm for 3 min, the immunoprecipitated samples were washed with 500 μL of immunoprecipitation buffer by tapping and centrifuged. The washing was repeated five times before western blotting.

Where [2] appears, read: quoted in docking discussion, cell line not stated there (values match HCT116).

By GI50 is commonly meant the concentration that inhibits growth by half. Read a high GI50 as lower sensitivity of the cells. The Cmax is the highest concentration seen after dosing. What is called bioavailability is dose-corrected exposure relative to a reference, in per cent.

Structures are written as SMILES. Where a SMILES comes first, the peptide text is derived from it. The star is where a group is joined. Cbz = O=C(OCc1ccccc1)*

Regarding `COc1cc(F)cc(N2CCN(C(=O)Nc3nc4sccc4nc3OC)CC2)c1` [Compound 7g, 4-(3-Fluoro-5-methoxyphenyl)-N-(2-methoxythieno[2,3-b]pyrazin-3-yl)piperazine-1-carboxamide], the GI50 in the data set on HCT8 was 39 nM; in the data set on HCT15, 30 nM; in the data set with HT29, 57 nM; in the data set on KM12 it was 22 nM; in the data set on Colo205, 14 nM; in the data set on SW620 it was 29 nM. In the data set on HCT116 (HCT116, SRB, 48 h), this compound showed a GI50 of 45 nM.

Regarding `COc1nc2ccsc2nc1NC(=O)N1CCN(c2cc(C)cc(C)c2)CC1` [Compound 7d, 4-(3,5-Dimethylphenyl)-N-(2-methoxythieno[2,3-b]pyrazin-3-yl)piperazine-1 carboxamide], the GI50 in the data set with HCT8 came to 59 nM; in the data set on HCT15, 38 nM; in the data set on HT29, 26 nM; in the data set on KM12, 32 nM; in the data set on Colo205, 40 nM; in the data set on SW620, 38 nM. Besides, growth with HCT116 (HCT116, SRB, 48 h) was halved (GI50) at 33 nM.

`COc1nc2ccsc2nc1NC(=O)N1CCN(c2cc(F)cc(F)c2)CC1` [Compound 7e, 4-(3,5-Difluorophenyl)-N-(2-methoxythieno[2,3-b]pyrazin-3-yl)piperazine-1-carboxamide]: the GI50 came to 269 nM with HCT8; 507 nM with HCT15; 672 nM in the data set with HT29; 426 nM in the data set on KM12; 287 nM in the data set with Colo205; 288 nM with SW620. Besides, the GI50 with HCT116 (HCT116, SRB, 48 h) is 307 nM; in the data set with HCT116 (setting [2]), ≥ 100 nM.

As to `COc1nc2cc(Cl)sc2nc1NC(=O)N1CCN(c2cc(C)cc(C)c2)CC1` [Compound 7b, N-(6-chloro-2-methoxythieno[2,3-b]pyrazin-3-yl)-4-(3,5-dimethylphenyl)piperazine-1-carboxamide], the GI50 in the data set on HCT8 came out at 900 nM; in the data set on HCT15 it was 437 nM; in the data set on HT29, 342 nM; with KM12 it was 244 nM; with Colo205, 900 nM; in the data set on SW620, 273 nM. The same compound came in with a GI50 with HCT116 (HCT116, SRB, 48 h) of 244 nM.

In the case of `COc1cc(OC)cc(N2CCN(C(=O)Nc3nc4sc(Cl)cc4nc3OC)CC2)c1` [Compound 7a, N-(6-chloro-2-methoxythieno[2,3-b]pyrazin-3-yl)-4-(3,5dimethoxyphenyl)piperazine-1-carboxamide], the GI50 with HCT8 turned out to be 761 nM; in the data set on HCT15, 484 nM; in the data set with HT29 it was 408 nM; in the data set with KM12, 273 nM; in the data set on Colo205, 173 nM; in the data set with SW620, 427 nM. The GI50 in the data set on HCT116 (HCT116, SRB, 48 h) is 344 nM; with HCT116 (setting [2]), ≥ 100 nM.

In turn, `COc1cc(C)cc(N2CCN(C(=O)Nc3nc4sccc4nc3OC)CC2)c1` [Compound 7f, 4-(3-methoxy-5-methylphenyl)-N-(2-methoxythieno[2,3-b]pyrazin-3-yl)piperazine-1-carboxamide] had a Cmax in [1] (no unit, species or route stated in b12 (7c value equals SD rats PO of Table 3)) of 195 ng/mL. For the same compound, the bioavailability in [1] (species and route not stated in b12 (7c value equals SD rats PO of Table 3), read-out: bioavailability (F)) is 21.8%. Moreover, the GI50 in the data set with HCT8 is 37 nM; in the data set on HCT15 it was 36 nM; with HT29, 21 nM; in the data set on KM12, 21 nM; with Colo205, 28 nM; in the data set with SW620 it was 34 nM. In addition, in the data set with HCT116 (HCT116, SRB, 48 h), the GI50 amounted to 1.9 nM.

`CC(C)C[C@@H](C=O)NC(=O)[C@H](CC(C)C)NC(=O)[C@H](CC(C)C)NC(=O)OCc1ccccc1` [MG132, reference compound] (Cbz-Leu-Leu-Leu-aldehyde): in the data set with FBXW7/c-Jun interaction, the c-Jun ubiquitination result is given as “increased”.

With `COc1nc2ccsc2nc1NC(=O)N1CCN(c2cc(C)cc(F)c2)CC1` [Compound 7h, 4-(3-Fluoro-5-methylphenyl)-N-(2-methoxythieno[2,3-b]pyrazin-3-yl)piperazine-1-carboxamide], the GI50 in the data set with HCT8 is 51 nM; with HCT15, 42 nM; in the data set on HT29, 29 nM; in the data set on KM12, 38 nM; with Colo205, 28 nM; in the data set with SW620, 40 nM. The same compound came in with a GI50 in the data set on HCT116 (HCT116, SRB, 48 h) of 32 nM.

In the case of `CCOc1nc2ccsc2nc1NC(=O)N1CCN(c2cc(OC)cc(OC)c2)CC1` [Compound 7i, 4-(3,5-dimethoxyphenyl)-N-(2-ethoxythieno[2,3-b]pyrazin-3-yl)piperazine-1-carboxamide], the 50% growth inhibitory concentration (GI50) with HCT8 is 58 nM; with HCT15, 68 nM; in the data set on HT29 it was 35 nM; in the data set on KM12, 74 nM; with Colo205, 35 nM; in the data set with SW620 it was 53 nM. Moreover, halving of growth in the data set on HCT116 (HCT116, SRB, 48 h) (GI50) required 71 nM.
